In PMC6748986, “Potent modulation of the CepR quorum sensing receptor and virulence in a Burkholderia cepacia complex member using non-native lactone ligands” (Scientific Reports, 2019):
pEC50, pIC50: −log10 of the molar value. “And” between values parts separate entries of the source, which are not always exact repeats. Identical values can stand only once.

What was measured:
[1] = molecular target: T1, CepR (Burkholderia cenocepacia, UniProt B4EMD0); experiment: CepR antagonism in E. coli β-galactosidase reporter (Ec-reporter), competition against C8-AHL; type: cell-based, B. cenocepacia; conditions: against 10 nM C8-AHL; for inhibition at 100 µM: read-out: Inh% (100-Act%); for pIC50 / Maximal Inhibition (%): Ec-reporter
T1 sequence (B4EMD0 1-239): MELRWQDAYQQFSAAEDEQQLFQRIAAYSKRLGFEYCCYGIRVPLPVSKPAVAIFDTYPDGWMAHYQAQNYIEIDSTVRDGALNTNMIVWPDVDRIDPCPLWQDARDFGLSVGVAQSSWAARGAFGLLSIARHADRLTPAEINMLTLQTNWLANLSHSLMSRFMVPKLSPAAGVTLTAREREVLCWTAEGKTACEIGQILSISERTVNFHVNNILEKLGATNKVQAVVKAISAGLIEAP
How it was run: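 CepR antagonism was measured in E. coli JLD271 (∆sdiA) carrying pJN105-cepR, which expresses B. cenocepacia CepR from an arabinose-inducible pBAD promoter, and pSC11-cepI, which fuses lacZ to the cepI promoter. Induced cells were grown 4 h with compound and 10 nM C8-AHL. β-Galactosidase activity was then read by CPRG cleavage at 37 °C after Z Buffer permeabilization.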

[2] = molecular target: T1, CepR; experiment: CepR agonism in E. coli β-galactosidase reporter (Ec-reporter) JLD271 [pJN105-cepR + pSC11-cepI]; type: cell-based, B. cenocepacia; conditions: for pEC50 / EC50 (nM): agonism dose-response; for Emax: read-out: Maximal Activation (%); for activation at 100 µM / Act%: Table S2, Ec-reporter, screening conc. 100 μM
How it was run: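 E. coli JLD271 (ΔsdiA) carrying arabinose-inducible CepR (27 mM L-arabinose) and cepI-lacZ fusion, grown 4 h with compound; β-galactosidase measured by CPRG cleavage at 37 °C (~30 min), normalized to OD600. Agonism compared with C8-AHL at 100 μM; screen at 100 μM or solubility limit, then dose-response; ≥3 trials.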

[3] = Table S3, Ec-reporter, screening conc. 100 μM
[4] = Ec-reporter, activity for 100 μM C8-AHL set to 100%, error ±10%

Compound	inhibition at 100 µM [1, 3]	pEC50 ([2]; Ec-reporter)	Emax [2, 4]	activation at 100 µM [2]	pIC50 [1]	Maximal Inhibition (%) [1]	also measured
O=C(CCc1ccc([N+](=O)[O-])cc1)N[C@H]1CCOC1=O [Compound E37]	-30%	9.72	95%	95%			EC50 (nM) ([2]; Ec-reporter): sub-nanomolar
CCCCCC(O)CC(=O)N[C@H]1CCOC1=O (stereo partly shown) [3’OH-C8-AHL, reference compound]		6.68					Inh% (100-Act%) [1, 3]: -20%; Maximal Activation (%) [2, 4]: 84%; Act% [2]: 84%
O=C(CCc1ccc(I)cc1)N[C@H]1CCOC1=O [Compound E32]	-20%	8.96	97%	97%			
O=C(CCc1ccc(C(F)(F)F)cc1)N[C@H]1CCOC1=O [Compound E35]	-50%	9.74	100%	100%			EC50 (nM) ([2]; Ec-reporter): sub-nanomolar
CCCCCCCC(=O)N[C@H]1CCOC1=O [Compound C8-AHL, N-octanoyl L-homoserine lactone, reference compound]	-30%	8.30 and 8.24	100%	100%			EC50 fold higher in the Ec-reporter than in the Bm-reporter ([2]; Ec- vs Bm-reporter): ~ 10 fold
CCCCCCCS(=O)(=O)N[C@H]1CCOC1=O [Compound A12]			46%	46%	6.42	68%	CepR agonism in words ([2]; Ec-reporter): failed to activate CepR
O=C(CC1CCCC1)N[C@H]1CCOC1=O [Compound B12]				39%	5.43	69%	
O=C(Cc1cccc(C(F)(F)F)c1)N[C@H]1CCOC1=O [Compound E3]				6.6%	5.48	77%	
O=C(Cc1cccc(Br)c1)N[C@H]1CCOC1=O [Compound C8]					5.57	79%	Act% [2]: 12%
